In patent US9815854B2, “3-(3H-imidazo[4,5-B]pyridin-2-yl)-1H-pyrazolo[3,4-C]pyridine and therapeutic uses thereof” (Samumed, LLC, priority 2014, dated 2017):
pEC50, pIC50: −log10 of the molar value.

Tests used:
[1] = test system: primary human fibroblasts derived from IPF patients (LL29 cells); assay: Inhibition of the fibrotic process in TGF-β1-treated primary human fibroblasts from IPF patients (αSMA staining); assay type: cell-based; details: Fibroblast, 96 h, TGF-β1 20 ng/mL, 4 days, read-out: Inhibition of fibrosis EC50
From the text: The above synthesized compounds were screened using primary human fibroblasts (derived from IPF patients) treated with TGF-β1 to determine their ability to inhibit the fibrotic process.
Human Fibroblast Celt Culture: Primary human fibroblasts derived from IPF patients (LL29 cells) [^1Xiaoqiu Liu, et.al., “Fibrotic Luna Fibroblasts Show Blunted Inhibition by cAMP Due to Deficient cAMP Response Element-Binding Protein Phosphorylation”, Journal of Pharmacology and Experimental Therapeutics (2005), 315(2), 678-687; ^2Watts, K. L., et.al., “RhoA signaling modulates cyclin D1 expression in human lung fibroblasts; implications for idiopathic pulmonary fibrosis”, Respiratory Research (2006), 7(1), 88] were obtained from American Type Culture Collection (ATCC) and expanded in F12 medium supplemented with 15% Fetal Bovine Serum and Penicillin/Streptomycin.
Compound Screening: Each compound was dissolved in DMSO as a 10 mM stock and used to prepare compound source plates. Serial dilution (1:2, 11-point dose-response curves from 10 μM to […]) and compound transfer was performed using the ECHO 550 (Lahcyte, Sunnyvale, Calif.) into 384-well clear bottom assay plates (Greiner Bio-One) with appropriate DMSO backfill fhr a final DMSO concentration of 0.1%. LL29 cells were plated at 1,500 cells/well in 80 μl/well F12 medium supplemented with 1% Fetal Bovine Serum. One hour after addition of the cells. TGF-β1 (Peprotech; 20 ng/mL) was added to the plates to induce fibrosis (ref. 1 and 2 above), Wells treated with TGF-β1 and containing DMSO were used as controls. Cells were incubated at 37° C. and 5% CO2 for 4 days. Following incubation for 4 days, SYTOX green nucleic acid stain (Life Technologies [Thermo Fisher Scientific]) was added to the wells at a final concentration of 1 uM and incubated at room temperature for 30 min. Cells were then fixed using 4% formaldehyde (Electron Microscopy Sciences), washed 3 times with PBS followed by blocking and penneabilization using 3% Bovine Serum Albumin (BSA; Sigma) and 0.3% Triton X-100 (Sigma) in PBS. Cells were then stained with antibody specific to α-smooth muscle actin (αSMA; Abeam) (ref 1 and 2 above) in 3% Bovine Serum Albumin (BSA; Sigma) and 0.3% Triton X-100 (Sigma) in PBS, and incubated overnight at 4° C. Cells were then washed 3 times with PBS, followed by incubation with Alexa Flor-647 conjugated secondary antibody (Life Technologies [Thermo Fisher Scientific]) and DAPI at room temperature for 1 hour, Cells were then washed 3 times with PBS and plates were sealed for imaging. αSMA staining was imaged by excitation at 630 nm and emission at 665 nm and quantified using the Compartmental Analysis program on the CellInsight CX5 (Thermo Scientific). Dead or apoptotic cells were excluded from analysis based on positive SYTOX green staining. % of total cells positive for αSMA were counted in each well and normalized to the average of 11 wells treated with TGF-β1 on the same plate using Dotmatics' Studies Software. The normalized averages (fold change over untreated) of 3 replicate wells for each compound concentration were used to create dose-responses curves and EC50 values were calculated using non-linear regression curve fit in the Dotmatics' Studies Software. The EC50 values are reported.

[2] = test system: Wnt activity (Sp5-Luc reporter, TCF/LEF binding sites) in SW480 colon carcinoma cells; assay: Sp5-Luc Wnt reporter gene screening assay in SW480 colon carcinoma cells; assay type: cell-based, human; details: Homo sapiens
From the text: The screening assay for Wnt activity is described as follows. Reporter cell lines can be generated by stably transducing cancer cell lines (e.g., colon cancer) or primary cells (e.g., IEC-6 intestinal cells) with a lentiviral construct that includes a Wnt-responsive promoter driving expression of the firefly luciferase gene.
SW480 colon carcinoma cells were transduced with a lentiviral vector expressing luciferase with a human Sp5 promoter consisting of a sequence of eight TCF/LEF binding sites. SW480 cells stably expressing the Sp5-Luc reporter gene and a hygromycin resistance gene were selected by treatment with 150 μg/ml of hygroinycin for 7 days. These stably transduced SW480 cells were expanded in cell culture and used for all further screening activities. For Sp5-Luc reporter gene assays, the cells were plated at 10,000 cells/well in 96-well plates with growth medium containing 10% fetal calf serum and incubated overnight at 37° C. and 5% CO2. Each compound was dissolved in DMSO as a 10 mM stock in standard j-vials and used to prepare compound source plates in dose-response format with 3-fold serial dilutions and a 10 mM top concentration. Compound transfer from serially diluted source plates to assay plates containing the cells was accomplished using a pintool (Multimek 96, Beckman equipped with V&P Scientific FP1S50H pins) based liquid handling protocol. This protocol used a slotted pin to transfer 50 nl of compound from a source plate well to an assay plate well containing 50 μl of cells in growth medium. […] Control wells received 50 nl of DMSO treatment for nommlization and calculating IC50 values. The treated cells were incubated at 37° C. and 5% CO2 for an additional forty-two hours. Following incubation, the growth medium was removed and 50 μl of BrightGlo luminescence reagent (Promega) was added to each well of the 96-well assay plates. The plates were placed on an orbital shaker for 5 min and then luminescence was quantified on the Victor3 (Perkin Elmer) plate reader. Readings were normalized to DMSO only treated cells, and normalized activities were utilized for IC50 calculations using the dose-response log (inhibitor) vs. response—variable slope (four parameters) nonlinear regression feature available in GraphPad Prism 5.0 or 6.0.

Row | pIC50 [2] | SMILES | pEC50 [1]
1 | 7.07 | CN(C)c1cncc(-c2cc3c(-c4nc5c(-c6cccc(F)c6)ccnc5[nH]4)n[nH]c3cn2)c1 [Compound 7, 5-(3-(7-(3-Fluorophenyl)-3H-imidazo[4,5-b]pyridin-2-yl)-1H-pyrazolo[3,4-c]pyridin-5-yl)-N,N-dimethylpyridin-3-amine] | 6.39
2 | 6.54 | CN(C)Cc1cncc(-c2cc3c(-c4nc5c(-c6cccc(F)c6)ccnc5[nH]4)n[nH]c3cn2)c1 [Compound 13, 1-(5-(3-(7-(3-Fluorophenyl)-3H-imidazo[4,5-b]pyridin-2-yl)-1H-pyrazolo[3,4-c]pyridin-5-yl)pyridin-3-yl)-N,N-dimethylmethanamine] | 6.13
3 | 7.19 | Fc1ccc(-c2ccnc3[nH]c(-c4n[nH]c5cnc(-c6cncnc6)cc45)nc23)cc1 [Compound 52, 3-(7-(4-Fluorophenyl)-3H-imidazo[4,5-b]pyridin-2-yl)-5-(pyrimidin-5-yl)-1H-pyrazolo[3,4-c]pyridine] | 6.59
4 | 7.57 | Nc1cncc(-c2cc3c(-c4nc5c(-c6ccccc6F)ccnc5[nH]4)n[nH]c3cn2)c1 [Compound 55, 5-(3-(7-(2-Fluorophenyl)-3H-imidazo[4,5-b]pyridin-2-yl)-1H-pyrazolo[3,4-c]pyridin-5-yl)pyridin-3-amine] | 7.70
5 | 7.34 | CC(C)(C)C(=O)Nc1cncc(-c2cc3c(-c4nc5c(-c6ccccc6F)ccnc5[nH]4)n[nH]c3cn2)c1 [Compound 60] | ≥ 8.05
6 | 6.89 | CCCC(=O)Nc1cncc(-c2cc3c(-c4nc5c(-c6ccccc6F)ccnc5[nH]4)n[nH]c3cn2)c1 [Compound 69, N-(5-(3-(7-(2-Fluorophenyl)-3H-imidazo[4,5-b]pyridin-2-yl)-1H-pyrazolo[3,4-c]pyridin-5-yl)pyridin-3-yl)butyramide] | 6.68
7 | 7.43 | O=C(Nc1cncc(-c2cc3c(-c4nc5c(-c6ccccc6F)ccnc5[nH]4)n[nH]c3cn2)c1)C1CCCC1 [Compound 73, N-(5-(3-(7-(2-Fluorophenyl)-3H-imidazo[4,5-b]pyridin-2-yl)-1H-pyrazolo[3,4-c]pyridin-5-yl)pyridin-3-yl)cyclopentanecarboxamide] | 6.49
8 | < 5.00 | c1cncc(-c2cc3c(-c4nc5c(-c6cccnc6)ccnc5[nH]4)n[nH]c3cn2)c1 [Compound 82, 5-(Pyridin-3-7-(pyridin-3-yl)-3H-imidazo[4,5-b]pyridin-2-yl)-1H-pyrazolo[3,4-c]pyridine] | ≥ 8.05

Continued, compound first:

Row | SMILES | pIC50 [2] | pEC50 [1]
9 | CC(C)(C)C(=O)Nc1cncc(-c2cc3c(-c4nc5c(-c6cccc(F)c6)ccnc5[nH]4)n[nH]c3cn2)c1 [Compound 8, N-(5-(3-(7-(3-Fluorophenyl)-3H-imidazo[4,5-b]pyridin-2-yl)-1H-pyrazolo[3,4-c]pyridin-5-yl)pyridin-3-yl)pivalamide] | 6.81 | 7.12
10 | CCCC(=O)Nc1cncc(-c2cc3c(-c4nc5c(-c6cccc(F)c6)ccnc5[nH]4)n[nH]c3cn2)c1 [Compound 17, N-(5-(3-(7-(3-Fluorophenyl)-3H-imidazo[4,5-b]pyridin-2-yl)-1H-pyrazolo[3,4-c]pyridin-5-yl)pyridin-3-yl)butyramide] | 7.22 | ≥ 8.05
11 | O=C(Nc1cncc(-c2cc3c(-c4nc5c(-c6cccc(F)c6)ccnc5[nH]4)n[nH]c3cn2)c1)C1CC1 [Compound 19, N -(5-(3-(7-(3-Fluorophenyl)-3H-imidazo[4,5-b]pyridin-2-yl)-1H-pyrazolo[3,4-c]pyridin-5-yl)pyridin-3-yl)cyclopropanecarboxamide] | 7.33 | 6.52
12 | Fc1ccc(-c2ccnc3[nH]c(-c4n[nH]c5cnc(-c6cncc(CN7CCCC7)c6)cc45)nc23)cc1 [Compound 40, 3-(7-(4-Fluorophenyl)-3H-imidazo[4,5-b]pyridin-2-yl)-5-(5-(pyrrolidn-1-ylmethyl)pyridin-3-yl)-1H-pyrazolo[3,4-c]pyridine] | 6.49 | 6.46
13 | CCCC(=O)Nc1cncc(-c2cc3c(-c4nc5c(-c6ccc(F)cc6)ccnc5[nH]4)n[nH]c3cn2)c1 [Compound 43, N-(5-(3-(7-(4-Fluorophenyl)-3H-imidazo[4,5-b]pyridin-2-yl)-1H-pyrazolo[3,4-c]pyridin-5-yl)pyridin-3-yl)butyramide] | 7.67 | 7.16
14 | O=C(Nc1cncc(-c2cc3c(-c4nc5c(-c6ccc(F)cc6)ccnc5[nH]4)n[nH]c3cn2)c1)C1CCC1 [Compound 46, N-(5-(3-(7-(4-Fluorophenyl)-3H-imidazo[4,5-b]pyridin-2-yl)-1H-pyrazolo[3,4-c]pyridin-5-yl)pyridin-3-yl)cyclobutanecarboxamide] | 7.29 | 6.62
15 | CC(C)C(=O)Nc1cncc(-c2cc3c(-c4nc5c(-c6cccnc6)ccnc5[nH]4)n[nH]c3cn2)c1 [Compound 87, N-(5-(3-(7-(Pyridin-3-yl)-3 H-imidazo[4,5-b]pyridin-2-yl)-1H-pyrazolo[3,4-c]pyridin-5-yl)pyridin-3-yl)isobutyramide] | < 5.00 | ≤ 5.00
16 | CC(C)Nc1cncc(-c2cc3c(-c4nc5c(-c6cccnc6)ccnc5[nH]4)n[nH]c3cn2)c1 [Compound 90, N-Isopropyl-5-(3-(7-(pyridin-3-yl)-3H-imidazo[4,5-b]pyridin-2-yl)-1H-pyrazolo[3,4-c]pyridin-5-yl)pyridin-3-amine] | < 5.00 | ≤ 5.00
17 | c1ccc(CNCc2cncc(-c3cc4c(-c5nc6c(-c7cccnc7)ccnc6[nH]5)n[nH]c4cn3)c2)cc1 [Compound 101] | < 5.00 | ≥ 8.05
18 | CCNCc1cncc(-c2cc3c(-c4nc5c(-c6ccccn6)ccnc5[nH]4)n[nH]c3cn2)c1 [Compound 136, N-((5-(3-(7-(Pyridin-2-yl)-3H-imidazo[4,5-b]pyridin-2-yl)-1H-pyrazolo[3,4-c]pyridin-5-yl)pyridin-3-yl)methyl)ethanamine] | 6.13 | ≥ 8.05
19 | O=C(Nc1cncc(-c2cc3c(-c4nc5c(-c6ccccn6)ccnc5[nH]4)n[nH]c3cn2)c1)c1ccccc1 [Compound 141, N-(5-(3-(7-(Pyridin-2-yl)-3H-imidazo[4,5-b]pyridin-2-yl)-1H-pyrazolo[3,4-c]pyridin-5-yl)pyridin-3-yl)benzamide] | < 5.00 | ≤ 5.00
20 | CCCCC(=O)Nc1cncc(-c2cc3c(-c4nc5c(-c6ccccn6)ccnc5[nH]4)n[nH]c3cn2)c1 [Compound 148, N-(5-(3-(7-(Pyridin-2-yl)-3H-imidazo[4,5-b]pyridin-2-yl)-1H-pyrazolo[3,4-c]pyridin-5-yl)pyridin-3-yl)pentanamide] | < 5.00 | ≥ 8.05
